Patent US9127040B2, “Regulation of sodium channels by PLUNC proteins” (The University of North Carolina at Chapel Hill, priority 2011, dated 2015)
Ends that are not written are not given here.

B1: SPLUNC1: human SPLUNC1 (SEQ ID NO:1), 256 amino acid secreted PLUNC family protein; rSPLUNC1 is the purified V5/6His-tagged recombinant form (protein, listed as Homo sapiens)
chain: MFQTGGLIVFYGLLAQTMAQFGGLPVPLDQTLPLNVNPALPLSPTGLAGSLTNALSNGLLSGGLLGILENLPLLDILKPGGGTSGGLLGGLLGKVTSVIPGLNNIIDIKVTDPQLLELGLVQSPDGHRLYVTIPLGIKLQVNTPLVGASLLRLAVKLDITAEILAVRDKQERIHLVLGDCTHSPGSLQISLLDGLGPLPIQGLLDSLTGILNKVLPELVQGNVCPLVNEVLRGLDITLVHDIVNMLIHGLQFVIKV
modifications: V5/6His tag in recombinant form
notes: rSPLUNC1 is the purified V5/6His-tagged recombinant form

Tests used:
[1] = molecular target: T1, βENaC (Homo sapiens, UniProt P51168); test: Biotinylated peptide pull-down of ENaC subunits from HEK293T cells; type: binding
T1 construct: expressed in transfected cells; host or cells: HEK293T cells (lysate)
T1 sequence (P51168 1-640): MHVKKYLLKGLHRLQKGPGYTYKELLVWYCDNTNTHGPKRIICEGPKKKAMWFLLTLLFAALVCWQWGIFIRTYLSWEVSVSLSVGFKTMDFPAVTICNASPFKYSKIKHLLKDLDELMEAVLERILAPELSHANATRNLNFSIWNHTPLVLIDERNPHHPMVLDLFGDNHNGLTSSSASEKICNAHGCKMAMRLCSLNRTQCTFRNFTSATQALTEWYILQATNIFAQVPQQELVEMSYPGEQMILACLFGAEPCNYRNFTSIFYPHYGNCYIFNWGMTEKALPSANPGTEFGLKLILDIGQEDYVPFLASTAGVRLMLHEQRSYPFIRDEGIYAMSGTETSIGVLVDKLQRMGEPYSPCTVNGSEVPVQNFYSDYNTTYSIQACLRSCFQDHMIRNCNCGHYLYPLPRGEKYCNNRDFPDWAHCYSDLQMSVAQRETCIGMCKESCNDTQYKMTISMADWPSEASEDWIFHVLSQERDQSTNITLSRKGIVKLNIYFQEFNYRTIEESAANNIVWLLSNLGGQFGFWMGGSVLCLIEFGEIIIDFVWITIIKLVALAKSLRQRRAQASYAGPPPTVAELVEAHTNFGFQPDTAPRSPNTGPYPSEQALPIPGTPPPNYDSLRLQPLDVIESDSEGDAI
Procedure: (§1) HEK293T cells were transfected with double-tagged human ENaC subunits with HA and V5 epitopes at the N- and C-termini, respectively, in combination with wild-type untagged subunit cDNA. When all three ENaC subunits were expressed, 0.5 μg of each subunit were transfected per well. When expressed individually, 0.75 μg of the subunit were transfected per well. The transfected cells were lysed 24 h later using NP-40 buffer with 1× complete EDTA-free protease inhibitor (Roche, Basel, Switzerland). The lysate was centrifuged at 16,300×g for 15 minutes at 4° C. and the supernatant collected. Protein concentration was determined using the BCA assay and 500 μg of protein plus 0.25 mg peptide and 100 μL of neutravidin were added to a spin column and rotated end-over-end at 4° C. for 24 h (all ThermoFisher Scientific, Rockford, Ill., USA). Flow-through was collected by centrifugation at 1000×g for 30 s. The beads were then washed 5× with NP-40 buffer. Bound protein was eluted by boiling at 95° C. for 10 minutes in 75 μL of 2×LDS NuPAGE sample buffer with 1× sample reducing agent followed by centrifugation at 16,300×g for 2 minutes. Samples were resolved on 4-12% Bis-Tris gels in MES and transferred to a nitrocellulose membrane using iBlot, setting P3 for 8 min (Invitrogen, Carlsbad, Calif., USA). The membrane was probed using 1:1000 anti-V5 antibody (Invitrogen, Carlsbad, Calif., USA) overnight at 4° C. in 3% fish gelatin in TBS-T. The blot was then incubated for 1 h at room temperature with an ECL sheep anti-mouse IgG secondary antibody and detected by ECL reagent (ThermoFisher Scientific, Waltham, Mass., USA) or by incubation with a goat anti-mouse IRDye secondary antibody and analyzed by an Odyssey infrared imaging system (LI-COR Biosciences, Lincoln, Nebr., USA).
Peptide pull-down assays were performed as described above. Samples were eluted by the addition of 100 μL of 0.1 M sodium citrate, pH 5.5, 0.1% SDS to the beads and incubating at 100° C. for 2 minutes, followed by centrifugation at 16,300×g for 2 minutes. […]

[2] = molecular target: T2, αENaC-eGFP and βENaC-mCherry (Homo sapiens, UniProt P37088+P51168); test: Acceptor-photobleaching FRET between fluorescently tagged ENaC subunits; type: cell-based; conditions: one hour of exposure
T2 construct: expressed in transfected cells
Text: (§2) Ai, cartoon of αENaC-eGFP and βENaC-mCherry under basal conditions (γENaC not shown). Aii We hypothesize that S18 binding to the extracellular loop of βENaC (1) induces a conformational change in ENaC which is reflected as altered intracellular FRET (2). This change may facilitate NEDD4-2-induced ubiquitination (3), leading to internalization of αβγENaC (4). […] In contrast, exposure to aprotinin had no effect. All n=8-10. C, Typical confocal images of HEK cells expressing αγENaC and βENaC-eGFP before and 1 h after 100 μM S18. Cell outlines are traced in white.
(§3) Since ENaC is regulated by NEDD4-2 binding to its C-termini, which leads to ubiquitination of its N-termini and internalization, we propose that S18 causes a conformational change in ENaC, leading to increased ubiquitination followed by internalization (FIG. 21A). As a first step towards understanding the mechanism of action of SPLUNC1, we performed FRET on fluorescently tagged ENaCs. […] Furthermore, βENaC-eGFP internalized upon S18 binding (FIG. 21C), consistent with our surface biotinylation data from oocytes.

[3] = molecular target: T3, γENaC (Homo sapiens, UniProt P51170); test: Biotinylated peptide pull-down of ENaC subunits from HEK293T cells; type: binding; conditions: subunits individually expressed
T3 construct: expressed in transfected cells; host or cells: HEK293T cells (lysate)
Procedure: as §1, with “The beads were then washed 5× with NP-40 buffer. Bound protein was eluted by boiling at 95° C. for 10 minutes in 75 μL of 2×LDS NuPAGE sample buffer with 1× sample reducing agent followed by centrifugation at 16,300×g for 2 minutes. Samples were resolved on 4-12% Bis-Tris gels in MES and transferred to a nitrocellulose membrane using iBlot, setting P3 for 8 min (Invitrogen, Carlsbad, Calif., USA).” left out

[4] = molecular target: T4, βENaC-eGFP (Homo sapiens, UniProt P51168); test: Confocal imaging of βENaC-eGFP internalization in HEK cells; type: cell-based; conditions: 1 h after 100 μM S18
T4 construct: expressed in transfected cells; host or cells: HEK cells
Text: as §2, §3

[5] = molecular target: T5, CFTR (Homo sapiens, UniProt P13569); test: CFTR activity in Xenopus oocytes co-expressing β2 adrenergic receptor, isoproterenol stimulated; type: cell-based; conditions: 10 μM isoproterenol
T5 construct: expressed in transfected cells; host or cells: Xenopus oocytes

[6] = tested on: trypsin; test: Cell-free fluorogenic assay, trypsin cleavage of BGAR-MCA; type: biochemical; conditions: 50 ng/ml rSPLUNC1 or 2 U/ml aprotinin; 1.0 or 0.3 U/ml trypsin
Procedure: (§4) For cell-free assays, reactions were carried out in 50 μl Ringer in a 96 well plate format with 100 μM BGAR-MCA. To measure endogenous protease activity in human bronchial epithelial cultures, 30 μl Ringer with 100 μM BGAR-MCA were placed directly onto the mucosal surfaces of human bronchial epithelial cultures grown on 12 mm T-clear inserts and the cultures were assayed in 12 well plates.

[7] = tested on: serine proteases; test: Endogenous protease activity (BGAR-MCA cleavage) on mucosal surface of human bronchial epithelial cultures; type: cell-based
Procedure: as §4

T5 sequence (P13569 whole entry, species assumed): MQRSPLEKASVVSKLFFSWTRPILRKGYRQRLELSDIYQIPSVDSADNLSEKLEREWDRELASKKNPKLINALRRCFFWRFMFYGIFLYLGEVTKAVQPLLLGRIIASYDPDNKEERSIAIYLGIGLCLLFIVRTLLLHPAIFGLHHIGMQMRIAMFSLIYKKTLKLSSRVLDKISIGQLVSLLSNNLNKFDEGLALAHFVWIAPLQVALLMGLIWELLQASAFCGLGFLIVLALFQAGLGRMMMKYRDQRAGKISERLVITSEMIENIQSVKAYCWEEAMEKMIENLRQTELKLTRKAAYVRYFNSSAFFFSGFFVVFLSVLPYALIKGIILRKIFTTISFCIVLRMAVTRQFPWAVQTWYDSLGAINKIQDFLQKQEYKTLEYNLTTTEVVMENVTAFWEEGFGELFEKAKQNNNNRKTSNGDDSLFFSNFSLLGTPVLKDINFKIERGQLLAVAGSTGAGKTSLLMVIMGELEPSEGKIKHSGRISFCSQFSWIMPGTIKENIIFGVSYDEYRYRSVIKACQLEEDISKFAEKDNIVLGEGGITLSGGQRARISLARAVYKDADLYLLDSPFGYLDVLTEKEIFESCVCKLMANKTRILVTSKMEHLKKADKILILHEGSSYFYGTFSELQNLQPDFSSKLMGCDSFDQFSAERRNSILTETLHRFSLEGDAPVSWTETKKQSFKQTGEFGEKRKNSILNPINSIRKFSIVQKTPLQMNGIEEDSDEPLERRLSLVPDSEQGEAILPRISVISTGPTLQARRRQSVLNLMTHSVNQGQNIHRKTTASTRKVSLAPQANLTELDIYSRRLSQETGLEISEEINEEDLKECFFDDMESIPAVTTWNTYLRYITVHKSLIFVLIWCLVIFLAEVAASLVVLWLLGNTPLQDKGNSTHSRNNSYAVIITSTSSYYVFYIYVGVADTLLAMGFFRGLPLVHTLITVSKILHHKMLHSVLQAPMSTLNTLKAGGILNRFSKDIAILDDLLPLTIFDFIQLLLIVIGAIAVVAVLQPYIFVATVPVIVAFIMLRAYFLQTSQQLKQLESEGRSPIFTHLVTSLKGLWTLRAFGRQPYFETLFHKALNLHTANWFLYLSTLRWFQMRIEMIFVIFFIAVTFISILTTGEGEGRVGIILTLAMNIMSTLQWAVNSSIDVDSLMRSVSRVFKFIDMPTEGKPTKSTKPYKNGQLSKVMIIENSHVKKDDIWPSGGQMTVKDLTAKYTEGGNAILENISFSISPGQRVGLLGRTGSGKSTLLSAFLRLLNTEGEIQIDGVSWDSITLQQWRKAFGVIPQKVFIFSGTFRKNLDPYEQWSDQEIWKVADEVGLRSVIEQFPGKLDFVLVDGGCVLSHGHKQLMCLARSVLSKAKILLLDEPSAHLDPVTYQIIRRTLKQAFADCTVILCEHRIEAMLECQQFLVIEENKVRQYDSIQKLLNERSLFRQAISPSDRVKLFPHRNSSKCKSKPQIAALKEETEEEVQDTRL
T4 sequence (P37088 whole entry partner, one chain of several): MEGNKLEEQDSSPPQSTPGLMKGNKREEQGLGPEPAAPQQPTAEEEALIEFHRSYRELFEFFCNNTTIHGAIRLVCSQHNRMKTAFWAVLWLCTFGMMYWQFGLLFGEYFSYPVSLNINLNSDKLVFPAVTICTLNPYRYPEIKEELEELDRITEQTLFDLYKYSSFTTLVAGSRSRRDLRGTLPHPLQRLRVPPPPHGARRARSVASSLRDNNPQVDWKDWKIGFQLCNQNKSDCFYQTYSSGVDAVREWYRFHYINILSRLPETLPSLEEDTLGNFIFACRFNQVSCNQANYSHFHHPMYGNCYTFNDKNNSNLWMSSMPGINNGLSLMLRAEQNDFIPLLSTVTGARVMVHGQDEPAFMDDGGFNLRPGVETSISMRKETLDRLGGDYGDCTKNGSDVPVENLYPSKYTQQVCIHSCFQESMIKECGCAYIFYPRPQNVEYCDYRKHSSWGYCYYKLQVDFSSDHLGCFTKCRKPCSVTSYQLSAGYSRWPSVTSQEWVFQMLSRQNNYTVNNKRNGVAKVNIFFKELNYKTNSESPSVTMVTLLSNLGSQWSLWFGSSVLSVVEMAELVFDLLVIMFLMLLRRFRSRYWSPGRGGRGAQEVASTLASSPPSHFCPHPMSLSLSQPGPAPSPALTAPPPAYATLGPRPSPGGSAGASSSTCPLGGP
T4 sequence (P51170 whole entry partner, one chain of several): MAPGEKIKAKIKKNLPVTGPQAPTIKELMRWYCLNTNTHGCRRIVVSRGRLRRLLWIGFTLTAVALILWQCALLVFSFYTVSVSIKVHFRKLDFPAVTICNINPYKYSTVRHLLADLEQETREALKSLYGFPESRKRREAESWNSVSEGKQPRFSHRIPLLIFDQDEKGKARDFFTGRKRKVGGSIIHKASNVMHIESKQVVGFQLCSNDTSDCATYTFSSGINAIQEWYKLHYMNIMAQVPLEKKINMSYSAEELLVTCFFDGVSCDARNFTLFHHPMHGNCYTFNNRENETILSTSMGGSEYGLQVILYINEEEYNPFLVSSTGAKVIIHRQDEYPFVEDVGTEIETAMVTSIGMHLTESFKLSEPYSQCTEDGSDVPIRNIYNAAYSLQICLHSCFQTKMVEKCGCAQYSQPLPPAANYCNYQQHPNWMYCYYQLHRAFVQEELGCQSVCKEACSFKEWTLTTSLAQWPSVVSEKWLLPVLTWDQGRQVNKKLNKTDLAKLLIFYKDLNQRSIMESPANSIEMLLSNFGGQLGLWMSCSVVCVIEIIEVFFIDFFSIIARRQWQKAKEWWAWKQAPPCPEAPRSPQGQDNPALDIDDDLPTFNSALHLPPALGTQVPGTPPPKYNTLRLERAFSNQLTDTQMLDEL
T2 sequence (P37088 whole entry, one chain of several): as the sequence (P37088 whole entry partner, one chain of several) above
T2 sequence (P51170 whole entry partner, one chain of several): as the sequence (P51170 whole entry partner, one chain of several) above
T3 sequence (P51170 whole entry): as the sequence (P51170 whole entry partner, one chain of several) above

Row | Molecule | glycosylation dependence of β-ENaC interaction ([1]; EndoH treated elution, tunicamycin treated cells) | binding to βENaC (pull-down) ([1]; subunits individually expressed, biotinylated peptide) | FRET between αENaC-eGFP and βENaC-mCherry [2] | binding to γENaC (pull-down) [3] | βENaC-eGFP internalization [4] | CFTR activity ([5]; 5 ng/ml rSPLUNC1 exposure) | CFTR activity ([5]; injection of SPLUNC1 cRNA) | inhibition of trypsin cleavage of fluorogenic substrate BGAR-MCA [6] | BGAR-MCA cleavage on human bronchial epithelial mucosal surfaces [7]
1 | GGLPVPLDQTLPLNVNPA [S18] | glycosylation dependent | binds exclusively to βENaC | significantly diminished | without any detectable binding | internalized |  |  |  | 
2 | B1 |  |  |  |  |  | no inhibitory effect on CFTR activity | no inhibitory effect on CFTR activity | ~10% | no significant affect
